Test results from paper PMC11088877, “AMP-activated protein kinase can be allosterically activated by ADP but AMP remains the key activating ligand” (Biochemical Journal, 2024).
Where “and” joins values, the source holds several entries; their conditions need not be identical. Equal values may be shown once.

Experiments:
[1] = biological target: T1, human α2β2γ1 complex, CBS4 mutant (I312G) (Homo sapiens, UniProt P54619+P54646, I312G); assay: Allosteric activation of CBS4 mutant human α2β2γ1 AMPK complex; format: biochemical; conditions: for Activation (maximal) / EC50 / IC50 / IC50/EC50: α2β2γ1 CBS4 mutant
T1 construct: made in house; host or cells: Escherichia coli
T1 sequence (P54619 whole entry I312G): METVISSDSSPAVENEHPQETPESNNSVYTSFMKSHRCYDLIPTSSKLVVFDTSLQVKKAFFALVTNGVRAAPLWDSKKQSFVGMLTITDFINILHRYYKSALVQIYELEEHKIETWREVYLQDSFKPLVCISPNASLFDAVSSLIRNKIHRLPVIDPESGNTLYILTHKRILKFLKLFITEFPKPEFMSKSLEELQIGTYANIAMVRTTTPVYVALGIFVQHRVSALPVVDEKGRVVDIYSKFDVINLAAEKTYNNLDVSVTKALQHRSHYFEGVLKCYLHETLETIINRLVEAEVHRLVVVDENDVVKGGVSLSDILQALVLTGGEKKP
T1 sequence (P54646 whole entry): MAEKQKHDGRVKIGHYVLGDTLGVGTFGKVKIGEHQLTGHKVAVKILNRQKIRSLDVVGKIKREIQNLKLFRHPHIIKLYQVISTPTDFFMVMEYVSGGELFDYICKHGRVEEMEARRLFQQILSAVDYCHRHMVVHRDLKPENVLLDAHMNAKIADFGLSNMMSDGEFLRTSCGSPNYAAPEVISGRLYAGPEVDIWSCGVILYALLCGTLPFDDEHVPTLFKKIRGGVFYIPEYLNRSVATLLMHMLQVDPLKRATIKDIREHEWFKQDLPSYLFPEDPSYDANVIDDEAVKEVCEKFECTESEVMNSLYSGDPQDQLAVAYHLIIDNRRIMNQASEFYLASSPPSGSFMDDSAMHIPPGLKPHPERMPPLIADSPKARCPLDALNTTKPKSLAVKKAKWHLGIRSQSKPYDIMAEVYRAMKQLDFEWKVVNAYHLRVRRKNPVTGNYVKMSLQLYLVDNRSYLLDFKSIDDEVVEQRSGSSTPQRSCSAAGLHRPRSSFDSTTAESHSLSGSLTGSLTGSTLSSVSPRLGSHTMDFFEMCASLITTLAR
T1 sequence (O43741 whole entry partner): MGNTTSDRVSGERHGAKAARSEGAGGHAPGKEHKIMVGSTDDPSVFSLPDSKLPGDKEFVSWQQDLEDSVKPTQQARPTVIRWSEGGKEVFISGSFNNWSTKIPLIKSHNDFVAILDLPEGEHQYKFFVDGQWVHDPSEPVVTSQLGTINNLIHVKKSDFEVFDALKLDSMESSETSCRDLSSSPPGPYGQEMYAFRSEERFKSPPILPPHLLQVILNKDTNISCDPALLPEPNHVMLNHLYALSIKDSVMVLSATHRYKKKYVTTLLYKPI
Description: To study allosteric activation with a more well-defined AMPK complex, and to study the effects of mutations in individual adenine nucleotide-binding sites on the γ subunit, we expressed a human α2β2γ1 complex in Escherichia coli and purified it utilizing the polyhistidine tag at the N-terminus of the α2 subunit. […] However, it had not been co-expressed with an N-myristoyl transferase so would not have been N-myristoylated on the β2 subunit. The complex was expressed not only with the WT γ1 sequence but also with mutations affecting hydrophobic residues previously shown to be involved in binding of the adenine moieties of nucleotides at CBS1 (L129D/V130D), CBS3 (V276G/L277G) and CBS4 (I312G). All four complexes co-purified as heterotrimeric 1:1:1 complexes as expected, and were phosphorylated and activated equally well either by CaMKK2 or the LKB1: STRADα:MO25α complex (Supplementary Figure S2). For the studies described below we phosphorylated Thr172 using a GST-tagged CaMKK2 and repurified AMPK using size exclusion chromatography and a glutathione-Sepharose column, which remove CaMKK2.
Figure 4. Allosteric activation of WT and mutant human α2β2γ1 AMPK complex by AMP and ADP at three different concentrations of ATP. The α2β2γ1 complex was phosphorylated on Thr172 prior to assay using CaMKK2. The γ1 subunit was either (A/E): WT; (B/F): a CBS1 mutant (L129D/V130D); (C/G): a CBS3 mutant (V276G/L277G); (D/H): a CBS4 mutant (I312G). Results are means of duplicate assays ± SD; error bars are not shown if they were smaller than the symbols used for mean values. Assays and curve fitting were as in Figure 1 at either 0.2 mM (left panels) or 5 mM (right panels) ATP. Best-fit values for all parameters used to generate the curves are listed in Supplementary Table S1.
Sources of antibodies were as described: pThr172 (AMPK-α: Cell Signaling Technologies, Danvers, MA, U.S.A., Cat# 2535), AMPK-α2 [22]. Rat liver AMPK was purified as described previously. Plasmid encoding human (His)6-tagged AMPK (α2β2γ1, bacterially expressed) generated as in [23], was a gift from AstraZeneca, Cambridge, U.K. The L129D/V130D (CBS1), V276G/L277G (CBS3) and I312G (CBS4) mutations in the α2β2γ1 complex were generated using the Quikchange II site-directed mutagenesis kit (Agilent Technologies) and confirmed by DNA sequencing. Human GST-tagged α2 kinase domain (1–310), LKB1:STRAD-α:MO25-α complexes, GST-tagged CaMKK2 [26], and PPM1A (PP2Cα) were produced as described. Bacterially expressed heterotrimers were activated by phosphorylation of Thr172 by GST-tagged CaMKK2 in the presence of ATP, and CaMKK2 was subsequently removed by passage through glutathione-Sepharose. Human GST-tagged α2 kinase domain was activated in a similar manner except that human (His)6-tagged LKB1:STRAD-α:MO25-α complex was used and removed after activation via passage through a His-Trap column. Recombinant human 5′-nucleotidase, CD73, Cat # 5795-EN-01, was from R&D systems (Minneapolis, MN, U.S.A.).
AMPK assays measured the transfer of radioactivity from [γ-^33P]ATP to a peptide substrate, which was separated from unreacted ATP by binding to P81 paper. This assay was described previously except that we used [γ-^33P] rather than [γ-^32P]ATP. In some assays (specified in Figure legends) the concentration of ATP was increased from 0.2 to 1 or 5 mM ATP, with MgCl2 concentrations maintained at a constant 4.8 mM excess above the concentration of ATP [19]. Where allosteric activation by AMP or ADP was being studied, we used the SAMS peptide as substrate. For all other assays the AMARA peptide was used.

[2] = biological target: T2, human α2β2γ1 complex, CBS3 mutant (V276G/L277G) (Homo sapiens, UniProt P54619+P54646, L277G/V276G); assay: AMPK inactivation and Thr172 dephosphorylation by PPM1A, CBS3 mutant; format: biochemical; conditions: 300 µM nucleotide, absence of ATP
T2 construct: made in house; host or cells: Escherichia coli
T2 sequence (P54619 whole entry V276G/L277G): as the sequence (P54619 whole entry I312G) above, with V276G, L277G, G312I counted along it
T2 sequence (P54646 whole entry): as the sequence (P54646 whole entry) above
T2 sequence (O43741 whole entry partner): as the sequence (O43741 whole entry partner) above
Protocol: The relative roles of the three CBS sites in the other two mechanisms of activation of AMPK by AMP or ADP, i.e. promotion of Thr172 phosphorylation by LKB1, and protection against Thr172 dephosphorylation by protein phosphatases, have not been examined previously. As expected, incubation of the α2β2γ1 AMPK complex with a fixed, limiting amount of purified LKB1:STRADα:MO25α complex in the presence of 200 µM Mg.ATP^2− caused a large degree of activation (Figure 5A) and phosphorylation (Figure 5B) of AMPK (unphosphorylated α2β2γ1 complex), which were stimulated more than 2-fold by 300 µM AMP and 1.6-fold by 300 µM ADP.
Figure 6. Effects of AMP or ADP on AMPK inactivation and Thr172 dephosphorylation by PP2Cα (PPM1A). Human α2β2γ1 complexes (WT, or with L129D/V130D, V276G/L277G or I312G mutations affecting CBS1, CBS3 or CBS4 respectively), all phosphorylated on Thr172, were incubated with a fixed concentration of PP2Cα (PPM1A) in the presence or absence of AMP or ADP (both 300 µM) as described in the Materials and methods section. After the incubation, aliquots were withdrawn for (A) AMPK assay or (B) Western blots. […] For (B), due to a limit on the number of lanes that could be run on one gel, single replicates from the triplicate assays were analysed. […]

Structure (SMILES)	increase of EC50 for activation relative to WT ([1]; α2β2γ1 CBS4 mutant vs WT, 0.2 mM ATP)	increase of EC50 relative to WT ([1]; α2β2γ1 CBS4 mutant vs WT, 5 mM ATP)	Activation (maximal) ([1]; 0.2 mM ATP)	EC50 ([1]; 0.2 mM ATP)	IC50 ([1]; 0.2 mM ATP)	IC50/EC50 ([1]; 0.2 mM ATP)	Activation (maximal) ([1]; 5.0 mM ATP)	EC50 ([1]; 5.0 mM ATP)	IC50 ([1]; 5.0 mM ATP)	IC50/EC50 ([1]; 5.0 mM ATP)	protective effect of nucleotide against PPM1A in the mutant [2]
Nc1ncnc2c1ncn2[C@@H]1O[C@H](COP(=O)(O)O)[C@@H](O)[C@H]1O [AMP]	40 fold	10- to 20 fold	2.1 fold and 2.1 (2.0-2.1) fold	38 µM	3300 µM	87	2.0- to 2.5 fold and 2.1 (1.9-2.4) fold	280 µM	28000 µM	100	almost completely abolished
Nc1ncnc2c1ncn2[C@@H]1O[C@H](COP(=O)(O)OP(=O)(O)O)[C@@H](O)[C@H]1O [ADP]	–	–	did not cause allosteric activation and none	–	780 µM	–	essentially abolished allosteric activation and none	–	31000 µM	–	almost completely abolished
